According to the NIST ThermoML archive (doi:10.1021/je030147g):
Where “and” joins values, the source holds several entries; their conditions need not be identical. Identical values can stand only once.

How the values were obtained:
[1] = 101.33 kPa, Liquid
[2] = refractive index (Na D-line) (dimensionless); conditions: 101.33 kPa, Liquid
[3] = xn = mol fraction of the nth substance listed; conditions: 101.33 kPa, Liquid
[4] = refractive index (Na D-line) (dimensionless); xn = mol fraction of the nth substance listed; conditions: 101.33 kPa, Liquid

CCN(CC)CC [triethylamine]
Conditions	mass density, 298.15 K [kg/m3]	mass density, 303.15 K [kg/m3]	mass density, 308.15 K [kg/m3]	refractive index, 298.15 K	refractive index, 303.15 K	refractive index, 308.15 K	speed of sound, 298.15 K [m/s]	viscosity, 298.15 K [mPa·s]	viscosity, 303.15 K [mPa·s]	viscosity, 308.15 K [mPa·s]
[1]	723.3	718.6	713.7	–	–	–	1123	0.367	0.349	0.332
[2]	–	–	–	1.3992	1.3958	1.3929	–	–	–	–

CCCCCCCCCCCCCC [tetradecane]
Conditions	mass density, 298.15 K [kg/m3]	mass density, 303.15 K [kg/m3]	mass density, 308.15 K [kg/m3]	refractive index, 298.15 K	refractive index, 303.15 K	refractive index, 308.15 K	speed of sound, 298.15 K [m/s]	viscosity, 298.15 K [mPa·s]	viscosity, 303.15 K [mPa·s]	viscosity, 308.15 K [mPa·s]
[1]	760.7	757	753.3	–	–	–	1315	2.032	1.827	1.653
[2]	–	–	–	1.4282	1.426	1.4236	–	–	–	–

C1CCOC1 [tetrahydrofuran]
Conditions	mass density, 298.15 K [kg/m3]	mass density, 303.15 K [kg/m3]	mass density, 308.15 K [kg/m3]	refractive index, 298.15 K	refractive index, 303.15 K	refractive index, 308.15 K	speed of sound, 298.15 K [m/s]	viscosity, 298.15 K [mPa·s]	viscosity, 303.15 K [mPa·s]	viscosity, 308.15 K [mPa·s]
[1]	882.9	877.5	871.2	–	–	–	1288	0.485	0.46	0.439
[2]	–	–	–	1.4049	1.4026	1.3998	–	–	–	–

CCCCN(CCCC)CCCC [tributylamine]
Conditions	mass density, 298.15 K	mass density, 303.15 K [kg/m3]	mass density, 308.15 K [kg/m3]	refractive index, 298.15 K	refractive index, 303.15 K	refractive index, 308.15 K	speed of sound, 298.15 K [m/s]	viscosity, 298.15 K [mPa·s]	viscosity, 303.15 K	viscosity, 308.15 K
[1]	773.9 kg/m3 and 773.3 kg/m3	769.2	765.7	–	–	–	1262	1.239	1.123 mPa·s and 1.124 mPa·s	1.028 mPa·s and 1.02 mPa·s and 1.103 mPa·s
[2]	–	–	–	1.4276	1.4255 and 1.4254	1.4228	–	–	–	–

ClC(Cl)=C(Cl)Cl [tetrachloroethene]
Conditions	mass density, 298.15 K [kg/m3]	mass density, 303.15 K [kg/m3]	mass density, 308.15 K [kg/m3]	refractive index, 298.15 K	refractive index, 303.15 K	refractive index, 308.15 K	speed of sound, 298.15 K [m/s]	viscosity, 298.15 K [mPa·s]	viscosity, 303.15 K [mPa·s]	viscosity, 308.15 K [mPa·s]
[1]	1616	1607.5	1597.5	–	–	–	1033	0.875	0.831	0.791
[2]	–	–	–	1.5036	1.5005	1.4978	–	–	–	–

ClC=C(Cl)Cl [trichloroethene] + CCCCN(CCCC)CCCC
Conditions	mass density, 298.15 K [kg/m3]	mass density, 303.15 K [kg/m3]	mass density, 308.15 K [kg/m3]	refractive index, 298.15 K	refractive index, 303.15 K	refractive index, 308.15 K	speed of sound, 298.15 K [m/s]	viscosity, 298.15 K [mPa·s]	viscosity, 303.15 K [mPa·s]	viscosity, 308.15 K [mPa·s]
[3], x2 = 0	1456.7	1447.1	1439.5	–	–	–	1028	0.595	0.571	0.549
[3], x2 = 0.0996	1299.3	1291.8	1284.4	–	–	–	1054	0.652	0.622	0.592
[3], x2 = 0.1953	1186.7	1180.1	1173.3	–	–	–	1084	0.713	0.675	0.637
[3], x2 = 0.2913	1098.3	1092.1	1086	–	–	–	1108	0.776	0.73	0.684
[3], x2 = 0.3902	1025.1	1019.6	1013.9	–	–	–	1129	0.842	0.788	0.734
[3], x2 = 0.4875	966.3	961	955.8	–	–	–	1151	0.909	0.846	0.783
[3], x2 = 0.5906	914.7	909.8	904.9	–	–	–	1170	0.978	0.907	0.835
[3], x2 = 0.6843	875	870.3	865.7	–	–	–	1187	1.041	0.962	0.882
[3], x2 = 0.7846	838.1	833.7	829.1	–	–	–	1205	1.105	1.018	0.93
[3], x2 = 0.8835	806.5	802.2	797.8	–	–	–	1227	1.167	1.071	0.976
[4], x2 = 0	–	–	–	1.4752	1.4722	1.469	–	–	–	–
[4], x2 = 0.0996	–	–	–	1.4632	1.4604	1.4576	–	–	–	–
[4], x2 = 0.1953	–	–	–	1.4563	1.453	1.4495	–	–	–	–
[4], x2 = 0.2913	–	–	–	1.4502	1.4469	1.4436	–	–	–	–
[4], x2 = 0.3902	–	–	–	1.4448	1.4417	1.4386	–	–	–	–
[4], x2 = 0.4875	–	–	–	1.4402	1.4377	1.4352	–	–	–	–
[4], x2 = 0.5906	–	–	–	1.437	1.4343	1.4317	–	–	–	–
[4], x2 = 0.6843	–	–	–	1.4346	1.4315	1.4284	–	–	–	–
[4], x2 = 0.7846	–	–	–	1.4318	1.4295	1.427	–	–	–	–
[4], x2 = 0.8835	–	–	–	1.4298	1.4272	1.4246	–	–	–	–

ClC=C(Cl)Cl [trichloroethene]
Conditions	mass density, 298.15 K [kg/m3]	mass density, 303.15 K [kg/m3]	mass density, 308.15 K [kg/m3]	refractive index, 298.15 K	refractive index, 303.15 K	refractive index, 308.15 K	speed of sound, 298.15 K [m/s]	viscosity, 298.15 K [mPa·s]	viscosity, 303.15 K [mPa·s]	viscosity, 308.15 K [mPa·s]
[1]	1456.7	1447.1	1439.5	–	–	–	1028	0.595	0.571	0.549
[2]	–	–	–	1.4752	1.4722	1.469	–	–	–	–

c1ccncc1 [pyridine]
Conditions	mass density, 298.15 K [kg/m3]	mass density, 303.15 K [kg/m3]	mass density, 308.15 K [kg/m3]	refractive index, 298.15 K	refractive index, 303.15 K	refractive index, 308.15 K	speed of sound, 298.15 K [m/s]	viscosity, 298.15 K [mPa·s]	viscosity, 303.15 K [mPa·s]	viscosity, 308.15 K [mPa·s]
[1]	979	973.7	968.6	–	–	–	1412	0.885	0.82	0.766
[2]	–	–	–	1.5062	1.5025	1.5016	–	–	–	–

CCCCCCCCCCCCCC [tetradecane] + CCCCN(CCCC)CCCC
x2 = 0
Conditions	mass density, 298.15 K [kg/m3]	mass density, 303.15 K [kg/m3]	mass density, 308.15 K [kg/m3]	refractive index, 298.15 K	refractive index, 303.15 K	refractive index, 308.15 K	speed of sound, 298.15 K [m/s]	viscosity, 298.15 K [mPa·s]	viscosity, 303.15 K [mPa·s]	viscosity, 308.15 K [mPa·s]
[3]	760.7	757	753.3	–	–	–	1315	2.032	1.827	1.653
[4]	–	–	–	1.4282	1.426	1.4236	–	–	–	–
